Experimental data reported in patent US8796314B2, “Heteroaryls and uses thereof” (Millennium Pharmaceuticals, Inc., priority 2009, dated 2014).

Target: T1, PI3Kalpha (Homo sapiens, UniProt P42336)
T1 construct: His (N); host or cells: SF9 insect cells (baculovirus)
Assay: Human PI3Kα enzyme assay (HTRF)
Assay type: biochemical
Conditions: ATP 25 uM, di-C8 PI(4,5)P2, 30 minutes at room temperature, values given only as potency bins
Text: The catalytic subunits of PI3Ks are cloned into either pDEST8 (p110 alpha) or pDEST10 (p110beta, p110delta, and p110gamma) as N-terminal His tagged fusion proteins using the Gateway system (Invitrogen, catalog#11804-010 for pDEST8 and 11806-015 for pDEST10). The sequences are verified before recombinant protein expression using the Baculovirus Expression System with Gateway® Technology. The accession numbers for the subunits are as follows:
The regulatory subunits of PI3Ks are cloned into pDEST8 as un-tagged protein using the Gateway system (Catalog#11804-010). The sequences are verified before recombinant protein expression using the Baculovirus Expression System with Gateway® Technology. The accession numbers for the subunits are as following: p85 alpha (GB: BC030815) p101 (GB: AB028925)
For expression of the p110 complexes, the p85 (MOI of 4) is co-infected with p110 alpha, beta, and delta respectively (1 MOI) in SF9 cells and harvested at 60 hours post co-infection. P110 gamma was infected at 1 MOI and harvested at 60 hours post infection.
For purification, PI3Ks are purified by Ni-NTA Agarose (Qiagen #30250) followed by Mono Q 10/100 GL (Ge Healthcare #17-5167-01). VPS34 is purified by Glutathione Sepharose 4 Fast Flow (GE Healthcare #17-5132-03) followed by HiTrap Q (GE Healthcare #17-1153-01).
1) Human PI3Kα Enzyme Assay Method
0.5 uL compounds in DMSO are added to wells of a 384 well microtitre plate (Corning 3575). At room temperature: 10 ul PI3K reaction buffer (50 mM Hepes, 5 mM DTT, 150 mM NaCl, 10 mM beta-glycerophosphate, 10 mM MgCl2, 0.25 mM sodium cholate and 0.001% CHAPS, pH 7.00) containing ATP (25 uM, Promega) is added followed immediately by 10 ul PI3K reaction buffer containing di-C8 PI(4,5)P2 (3.5 uM, CellSignals) and PI3Kalpha (0.4875 nM, Millennium Protein Sciences Group) and the mixture is incubated with shaking at room temperature for 30 minutes. Then 5 ul PI3K stop mix (50 mM Hepes, 5 mM DTT, 150 mM NaCl, 0.01% Tween-20, 15 mM EDTA and 25 nM biotin-PI(3,4,5)P3 (Echelon) is added to quench the reaction followed immediately by addition of 5 ul HTRF detection mix (50 mM Hepes, 5 mM DTT, 150 mM NaCl, 0.01% Tween-20, 40 mM KF, 10 nM GST:GRP-1 PH domain (Millennium Protein Sciences Group), 15 nM Streptavidin-XL (CisBio) and 0.375 nM anti-GST Eu++ antibody (CisBio) at pH 7.00). The plates are then incubated for 1 hour at room temperature with shaking and then read on a BMG PheraStar Plus reader.

T1 sequence (P42336 whole entry): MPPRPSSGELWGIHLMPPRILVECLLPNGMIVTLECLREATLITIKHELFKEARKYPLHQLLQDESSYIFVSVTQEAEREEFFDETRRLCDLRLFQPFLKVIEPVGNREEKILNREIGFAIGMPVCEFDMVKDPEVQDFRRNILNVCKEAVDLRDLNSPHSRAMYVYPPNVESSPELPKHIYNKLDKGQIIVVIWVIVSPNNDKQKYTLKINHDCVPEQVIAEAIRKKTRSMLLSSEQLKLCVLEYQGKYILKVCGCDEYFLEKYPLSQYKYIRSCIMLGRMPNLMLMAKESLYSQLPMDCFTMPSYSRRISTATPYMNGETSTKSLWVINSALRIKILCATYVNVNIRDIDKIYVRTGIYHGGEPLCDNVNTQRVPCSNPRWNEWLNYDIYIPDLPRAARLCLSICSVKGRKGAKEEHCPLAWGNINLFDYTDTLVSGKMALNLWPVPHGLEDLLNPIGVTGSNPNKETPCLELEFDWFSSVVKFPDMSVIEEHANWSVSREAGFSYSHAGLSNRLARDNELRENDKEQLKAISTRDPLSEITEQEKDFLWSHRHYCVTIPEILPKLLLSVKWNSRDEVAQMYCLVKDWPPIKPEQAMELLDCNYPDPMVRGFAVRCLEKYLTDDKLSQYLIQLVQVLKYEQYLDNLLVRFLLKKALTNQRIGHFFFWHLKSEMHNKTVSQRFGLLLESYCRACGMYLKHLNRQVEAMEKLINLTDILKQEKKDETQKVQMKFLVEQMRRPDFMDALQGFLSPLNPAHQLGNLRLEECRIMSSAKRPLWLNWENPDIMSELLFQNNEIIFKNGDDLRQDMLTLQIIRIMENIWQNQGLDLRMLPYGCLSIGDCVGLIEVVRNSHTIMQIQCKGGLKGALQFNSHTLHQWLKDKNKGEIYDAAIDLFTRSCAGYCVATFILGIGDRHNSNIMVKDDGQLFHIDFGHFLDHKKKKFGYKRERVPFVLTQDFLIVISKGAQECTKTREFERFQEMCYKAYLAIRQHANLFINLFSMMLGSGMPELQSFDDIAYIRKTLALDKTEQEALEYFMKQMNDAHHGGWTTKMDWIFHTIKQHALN
T1 sequence (P27986 whole entry partner): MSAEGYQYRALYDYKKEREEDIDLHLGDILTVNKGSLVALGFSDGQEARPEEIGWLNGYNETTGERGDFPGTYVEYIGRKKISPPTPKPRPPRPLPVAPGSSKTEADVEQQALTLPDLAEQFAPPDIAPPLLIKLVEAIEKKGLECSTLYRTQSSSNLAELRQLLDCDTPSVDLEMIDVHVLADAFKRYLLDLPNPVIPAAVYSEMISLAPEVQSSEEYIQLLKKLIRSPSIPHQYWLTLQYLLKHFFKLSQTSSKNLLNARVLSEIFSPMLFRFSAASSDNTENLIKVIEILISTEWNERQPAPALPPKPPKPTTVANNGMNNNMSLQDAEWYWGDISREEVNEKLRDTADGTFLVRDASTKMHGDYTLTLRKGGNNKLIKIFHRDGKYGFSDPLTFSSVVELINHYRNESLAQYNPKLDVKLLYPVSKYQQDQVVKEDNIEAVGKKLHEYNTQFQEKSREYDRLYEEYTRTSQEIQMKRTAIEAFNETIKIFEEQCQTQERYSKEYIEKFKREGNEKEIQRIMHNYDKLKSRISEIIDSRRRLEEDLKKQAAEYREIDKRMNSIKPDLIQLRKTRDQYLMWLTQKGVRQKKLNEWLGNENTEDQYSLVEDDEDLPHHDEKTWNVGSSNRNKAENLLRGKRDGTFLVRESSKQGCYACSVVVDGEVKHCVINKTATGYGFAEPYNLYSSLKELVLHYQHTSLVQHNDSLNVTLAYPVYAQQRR

Question: With `N#Cc1c(-c2ccnc(NC(=O)c3ccccc3)c2)sc(-c2nnc[nH]2)c1-c1ccc(Cl)cc1Cl` [Compound 1] as the compound, how does the IC50 read?
Answer: The IC50 was greater than 1 µM.

Question: With `CS(=O)(=O)Nc1cc(-c2sc(-c3nnc[nH]3)c(-c3ccc(Cl)cc3Cl)c2C#N)ccn1` [Compound 4] as the compound, how does the IC50 read?
Answer: The IC50 was greater than 1 µM.

Question: With `Cc1cnc(N)nc1-c1sc(-c2nnc[nH]2)c(-c2ccc(Cl)cc2Cl)c1C#N` [Compound 8] as the compound, how does the IC50 read?
Answer: Its IC50 is greater than 1 µM.

Question: Which IC50 does the source give for `CNc1nccc(-c2sc(-c3ncc[nH]3)c(-c3ccc(Cl)cc3Cl)c2C#N)n1` [Compound 16] here?
Answer: Its IC50 is less than 0.1 µM.

Question: With `COc1cc(-c2sc(-c3nnc[nH]3)c(-c3ccc(Cl)cc3Cl)c2C#N)ccn1` [Compound 24] as the compound, how does the IC50 read?
Answer: The IC50 was greater than 1 µM.

Question: `COc1ccc(CNc2cc(-c3sc(-c4nnc[nH]4)c(-c4ccc(Cl)cc4Cl)c3C#N)ccn2)c(OC)c1` [Compound 33] was tested. Which IC50 did it give?
Answer: Its IC50 is greater than 1 µM.

Question: For `CNC(=O)c1cc(-c2sc(-c3nnc[nH]3)c(-c3ccc(Cl)cc3Cl)c2C#N)ccn1` [Compound 44], which IC50 is on record?
Answer: The IC50 was greater than 1 µM.

Question: Which IC50 does the source give for `N#Cc1c(-c2ccnc(N)c2)sc(C(N)=O)c1-c1ccc(Cl)cc1Cl` [Compound 60] here?
Answer: Its IC50 is 0.1 to 1 µM.

Question: Which IC50 does the source give for `N#Cc1c(-c2ccnc(N)c2)sc(-c2cnc[nH]2)c1-c1ccc(Cl)cc1Cl` [Compound 80, 2-(2-aminopyridin-4-yl)-4-(2,4-dichlorophenyl)-5-(1H-imidazol-5-yl)thiophene-3-carbonitrile] here?
Answer: Its IC50 is less than 0.1 µM.

Question: With `CNc1cc(-c2cc(-c3ccc(Cl)cc3Cl)c(-c3ncc[nH]3)s2)ncn1` [Compound 84] as the compound, how does the IC50 read?
Answer: Its IC50 is greater than 1 µM.
